Where two headings read alike, the source gives them in different places.
Assays:
[1] = test system: HCV replicon 1A; assay: Cell-based HCV Replicon Assay A, replicon 1A
Summary of the method: (§1)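 HCV replicon RNA levels are measured by multiplexed real-time RT-PCR, with cyclophilin as internal control, after 3 days of compound exposure. Compounds are tested in 10 serial dilutions starting between 333.3 nM and 1.667 nM, with 5% FBS in the medium.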

[2] = test system: HCV replicon 1B; assay: Cell-based HCV Replicon Assay B, replicon 1B
Description: In an alternate assay (“Replicon Assay B”), 1000 cells were seeded per well in a 384-well collagen coated black plate from Greiner bio-one (Cat #781946) in 5% FBS. Inhibitors of this invention were added at 24 h post-seeding, and the plates were incubated for 3 days. Cells were subsequently lysed with Qiagen lysis buffer (Cat #1062731) to extract the RNA. HCV replicon RNA level was measured by real-time PCR using the RNA-to-CT kit from Applied Biosystem (Cat #4392656) and genotype-specific primers and probes. The amplicon was located within NS5B. The sequence of the PCR primers are as follows: 5B.2F, ATGGACAGGCGCCCTGA (SEQ. ID NO. 1); 5B.2R, […] (SEQ. ID NO. 2); the probe sequence was FAM-labeled CACGCCATGCGCTGCGG (SEQ. ID NO. 3). To detect genotype 1A the primer 1A F, TGCGGAACCGGTGAGTACA and 1A R, […] were used; the probe sequence was FAM-[…].
The real-time RT-PCR reactions were run on ABI PRISM 7900HT or Viia7 Sequence Detection System using the following program: 48° C. for 30 minutes, 95° C. for 10 minutes, 40 cycles of 95° C. for 15 sec, 60° C. for 1 minutes. The 50% effective concentration (EC50) was the drug concentration necessary to achieve an increase in the cycle threshold (CT) of 1 over the projected baseline CT.
Data was obtained for various compounds of the present invention using the methods described in the Example above, and is presented in the table immediately below. Data for replicons 1A, 1AY93H and 2B were obtained using Replicon Assay A and data for replicons 1AQ30D and 1B were obtained using Replicon Assay B.

[3] = test system: HCV replicon 1AY93H; assay: Cell-based HCV Replicon Assay A, replicon 1AY93H
Summary of the method: as §1

[4] = test system: HCV replicon 2B; assay: Cell-based HCV Replicon Assay A, replicon 2B
Summary of the method: as §1

[5] = read-out: 1A Y93H IC50, replicon 1AY93H
[6] = replicon 1AY93H, read-out: 1A Y93H IC50
[7] = Hepatitis C virus, read-out: 1A Y93H IC50 (nM), replicon 1AY93H
[8] = Hepatitis C virus, read-out: 2B IC50 (nM), replicon 2B

| Structure (SMILES) | IC50 ([1]; Hepatitis C virus) | IC50 [1] | IC50 [3, 5] | IC50 ([4]; read-out: 2B IC50, replicon 2B) | also measured |
| --- | --- | --- | --- | --- | --- |
| COC(=O)N[C@H](C(=O)N1CCC[C@H]1c1ncc(-c2cc(F)c3c(c2)OC(c2nc(C4CC4)sc2C)n2c-3cc3cc(-c4cnc([C@@H]5CCCN5C(=O)[C@@H](NC(=O)OC)C(C)C)[nH]4)ccc32)[nH]1)C(C)C (mixture of isomers) [Compound 451] | 2.5 pM | – | – | – | IC50 ([2]; Hepatitis C virus): 2.7 pM |
| CCc1nnc(C2Oc3cc(-c4cnc([C@@H]5CCCN5C(=O)[C@@H](NC(=O)OC)C(C)C)[nH]4)cc(F)c3-c3cc4cc(-c5cnc([C@@H]6CCCN6C(=O)C(NC(=O)OC)C(C)C)[nH]5)ccc4n32)s1 (single isomer, unassigned) [Compound 114] | – | 2.7 pM | – | – | IC50 ([2]; Hepatitis C virus): 3 pM |
| COC(=O)NC(C(=O)N1[C@@H]2C[C@@H]2C[C@H]1c1ncc(-c2ccc3c(c2)cc2n3C(c3cnc(C4CC4)s3)Oc3cc(-c4cnc([C@@H]5CCCN5C(=O)[C@@H](NC(=O)OC)C(C)C)[nH]4)cc(F)c3-2)[nH]1)C1C[C@@H](C)O[C@H](C)C1 (single isomer, unassigned) [Compound 312] | 3.1 pM | 2.5 pM | – | – | IC50 [2]: 3 pM; IC50 ([2]; Hepatitis C virus): 2 pM |
| COC(=O)N[C@H](C(=O)N1CCC[C@H]1c1ncc(-c2cc(F)c3c(c2)OC(c2cscn2)n2c-3cc3cc(-c4cnc([C@@H]5CCCN5C(=O)[C@@H](NC(=O)OC)C(C)C)[nH]4)ccc32)[nH]1)C(C)C (single isomer, unassigned) [Compound 430] | – | 6 pM | 19.5 nM | 7.1 nM | – |
| COC(=O)N[C@H](C(=O)N1CCC[C@H]1c1ncc(-c2cc(F)c3c(c2)OC(c2cscn2)n2c-3cc3cc(-c4cnc([C@@H]5CCCN5C(=O)[C@@H](NC(=O)OC)C(C)C)[nH]4)ccc32)[nH]1)C(C)C (single isomer, unassigned) [Compound 431] | – | 33 pM | 0.56 nM | 3.1 nM | – |
| COC(=O)NC(C(=O)N1[C@@H]2C[C@@H]2C[C@H]1c1ncc(-c2ccc3c(c2)cc2n3C(c3cnc(CC(C)C)s3)Oc3cc(-c4cnc([C@@H]5CCCN5C(=O)[C@@H](NC(=O)OC)C(C)C)[nH]4)cc(F)c3-2)[nH]1)C1CCOC(C)(C)C1 (single isomer, unassigned) [Compound 436] | – | 1.1 pM | – | – | IC50 [3, 6]: 0.126 nM; IC50 ([4]; replicon 2B, read-out: 2B IC50): 0.318 nM |
| COC(=O)N[C@H](C(=O)N1CCC[C@H]1c1ncc(-c2cc(F)c3c(c2)OC(c2cnc(C4(C)CCCC4)s2)n2c-3cc3cc(-c4cnc([C@@H]5C[C@H]6C[C@H]6N5C(=O)[C@@H](NC(=O)OC)C(C)C)[nH]4)ccc32)[nH]1)C(C)C (single isomer, unassigned) [Compound 455] | – | 1.7 pM | 0.981 nM | – | IC50 [2]: 3.4 pM |
| CCCc1ncc(C2Oc3cc(-c4cnc([C@@H]5CCCN5C(=O)[C@@H](NC(=O)OC)C(C)C)[nH]4)cc(C)c3-c3cc4cc(-c5cnc([C@@H]6CCCN6C(=O)C(NC(=O)OC)C(C)(C)F)[nH]5)ccc4n32)s1 (single isomer, unassigned) [Compound 486] | 4.1 pM | – | – | – | IC50 [3, 7]: 0.342 nM; IC50 [4, 8]: 0.031 nM |
| COC(=O)N[C@H](C(=O)N1CCC[C@H]1c1ncc(-c2cc(F)c3c(c2)OC(c2cnc(C4CC4)s2)n2c-3c(C)c3cc(-c4cnc([C@@H]5CCCN5C(=O)[C@@H](NC(=O)OC)C(C)C)[nH]4)ccc32)[nH]1)C(C)C (single isomer, unassigned) [Compound 496] | – | 6.9 pM | – | – | IC50 [2]: 3.5 pM |
| COC(=O)N[C@H](C(=O)N1CCC[C@H]1c1ncc(-c2cc(F)c3c(c2)OC(c2cc(C)ns2)n2c-3cc3cc(-c4cnc([C@@H]5CCCN5C(=O)[C@@H](NC(=O)OC)C(C)C)[nH]4)ccc32)[nH]1)C(C)C (single isomer, unassigned) [Compound 502] | 1.6 pM | – | – | – | IC50 ([2]; Hepatitis C virus): 2.5 pM; IC50 [4, 8]: 2.31 nM |
| COC(=O)N[C@H](C(=O)N1CCC[C@H]1c1ncc(-c2cc(F)c3c(c2)OC(c2nc4c(s2)CCC4)n2c-3cc3cc(-c4cnc([C@@H]5CCCN5C(=O)[C@@H](NC(=O)OC)C(C)C)[nH]4)ccc32)[nH]1)C(C)C (single isomer, unassigned) [Compound 505] | – | 1.5 pM | 0.152 nM | 0.22 nM | – |
| COC(=O)N[C@H](C(=O)N1CCC[C@H]1c1ncc(-c2cc(F)c3c(c2)OC(c2cnc(CC4CC4)s2)n2c-3cc3cc(-c4cnc([C@@H]5CCCN5C(=O)[C@@H](NC(=O)OC)C(C)C)[nH]4)ccc32)[nH]1)C(C)C (single isomer, unassigned) [Compound 510] | – | 1 pM | – | – | IC50 [3, 6]: 0.629 nM; IC50 ([4]; replicon 2B, read-out: 2B IC50): 0.624 nM |
| COC(=O)N[C@H](C(=O)N1CCC[C@H]1c1ncc(-c2cc(F)c3c(c2)OC(c2sc(C4CC4)nc2C2CC2)n2c-3cc3cc(-c4cnc([C@@H]5CCCN5C(=O)[C@@H](NC(=O)OC)C(C)C)[nH]4)ccc32)[nH]1)C(C)C (single isomer, unassigned) [Compound 525] | 4.5 pM | – | – | – | IC50 ([2]; Hepatitis C virus): 2.2 pM |
| COC(=O)N[C@H](C(=O)N1CCC[C@H]1c1ncc(-c2cc(F)c3c(c2)OC(c2sc(C4CC4)nc2C2CC2)n2c-3cc3cc(-c4cnc([C@@H]5CCCN5C(=O)[C@@H](NC(=O)OC)C(C)C)[nH]4)ccc32)[nH]1)C(C)C (single isomer, unassigned) [Compound 526] | – | 2.4 pM | – | – | IC50 [2]: 1.1 pM; IC50 [4, 8]: 0.537 nM |
| COC(=O)N[C@H](C(=O)N1CCC[C@H]1c1ncc(-c2cc(F)c3c(c2)OC(c2cnc(C4CCCCC4)s2)n2c-3cc3cc(-c4cnc([C@@H]5CCCN5C(=O)[C@@H](NC(=O)OC)C(C)C)[nH]4)ccc32)[nH]1)C(C)C (single isomer, unassigned) [Compound 528] | – | 1.4 pM | 1.15 nM | 0.727 nM | – |
| COC(=O)NC(C(=O)N1CCC[C@H]1c1ncc(-c2ccc3c(c2)cc2n3C(c3nc4c(s3)CCC4)Oc3cc(-c4cnc([C@@H]5CCCN5C(=O)[C@@H](NC(=O)OC)C(C)C)[nH]4)cc(F)c3-2)[nH]1)C1CCOC(C)(C)C1 (single isomer, unassigned) [Compound 536] | – | 2.3 pM | – | – | IC50 [2]: 2.7 pM; IC50 ([4]; replicon 2B, read-out: 2B IC50): 0.029 nM |
| COC(=O)NC(C(=O)N1CCC[C@H]1c1ncc(-c2ccc3c(c2)cc2n3C(c3nc4c(s3)CCC4)Oc3cc(-c4cnc([C@@H]5CCCN5C(=O)[C@@H](NC(=O)OC)C(C)C)[nH]4)cc(F)c3-2)[nH]1)C1CCOC(C)(C)C1 (single isomer, unassigned) [Compound 537] | 1.9 pM | – | – | – | IC50 [3, 7]: 3.33 nM; IC50 [4, 8]: 0.198 nM |
| COC(=O)NC(C(=O)N1CCC[C@H]1c1ncc(-c2ccc3c(c2)cc2n3C(c3cnc(CC4CC4)s3)Oc3cc(-c4cnc([C@@H]5CCCN5C(=O)[C@@H](NC(=O)OC)C(C)C)[nH]4)cc(F)c3-2)[nH]1)C1CCOC(C)(C)C1 (single isomer, unassigned) [Compound 538] | – | 1.2 pM | – | – | IC50 [3, 6]: 0.579 nM; IC50 ([4]; replicon 2B, read-out: 2B IC50): 0.117 nM |
| COC(=O)NC(C(=O)N1CCC[C@H]1c1ncc(-c2ccc3c(c2)cc2n3C(c3cnc(CC(C)C)s3)Oc3cc(-c4cnc([C@@H]5CCCN5C(=O)[C@@H](NC(=O)OC)C(C)C)[nH]4)cc(F)c3-2)[nH]1)C1CCOC(C)(C)C1 (single isomer, unassigned) [Compound 542] | – | 1.4 pM | 0.495 nM | 0.124 nM | – |
| COC(=O)NC(C(=O)N1CCC[C@H]1c1ncc(-c2ccc3c(c2)cc2n3C(c3cnc(CC(C)C)s3)Oc3cc(-c4cnc([C@@H]5CCCN5C(=O)[C@@H](NC(=O)OC)C(C)C)[nH]4)cc(F)c3-2)[nH]1)C1CCOC(C)(C)C1 (single isomer, unassigned) [Compound 543] | – | 2.1 pM | 0.167 nM | 0.153 nM | – |
| COC(=O)NC(C(=O)N1CCC[C@H]1c1ncc(-c2ccc3c(c2)cc2n3C(c3cnc(CC(C)C)s3)Oc3cc(-c4cnc([C@@H]5CCCN5C(=O)[C@@H](NC(=O)OC)C(C)C)[nH]4)cc(F)c3-2)[nH]1)C1C[C@@H](C)O[C@@H](C)C1 (single isomer, unassigned) [Compound 546] | 1.4 pM | – | 0.315 nM | 0.165 nM | – |
| COC(=O)N[C@H](C(=O)N1CCC[C@H]1c1ncc(-c2cc(F)c3c(c2)OC(c2cnc(-c4ccc(F)cc4F)s2)n2c-3cc3cc(-c4cnc([C@@H]5CCCN5C(=O)[C@@H](NC(=O)OC)C(C)C)[nH]4)ccc32)[nH]1)C(C)C (stereo partly drawn) [Compound 55] | 1.2 pM | – | – | – | IC50 [3, 7]: 0.0021 nM; IC50 [4, 8]: 0.003 nM |
| COC(=O)N[C@H](C(=O)N1CCC[C@H]1c1ncc(-c2cc(F)c3c(c2)OC(c2cnc(-c4ccncn4)s2)n2c-3cc3cc(-c4cnc([C@@H]5CCCN5C(=O)[C@@H](NC(=O)OC)C(C)C)[nH]4)ccc32)[nH]1)C(C)C (stereo partly drawn) [Compound 503] | 2.2 pM | – | – | – | IC50 [3, 7]: 0.149 nM; IC50 [4, 8]: 0.362 nM |
